Some test systems named below: NCI-H460 lung; NCI-H23 lung; UO-31 renal; PC-3 prostate; HL-60(TB) leukemia; SNB-19 CNS; HCT-15 colon; MDA-MB-435; TK-10 renal; OVCAR-3 ovarian.
Holding throughout (test): DTP human tumour cell line panel, 48 h

Several values for one entry are separate records, joined by “and”; a condition that tells them apart may be missing. Equal values may be shown once.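 Tested at 5 concentrations; 48 h exposure; 96-well plates; endpoints linearly interpolated, else capped at highest concentration. GI50 = concentration required for 50% inhibition of growth. TGI: total growth inhibition.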

The GI50 is the concentration that inhibits growth by half. The term TGI denotes the concentration giving total growth inhibition. Read a low TGI as more potent growth arrest.

On to `CCN(CC)CCOC(=O)Cc1cccc2c(=O)cc(-c3ccccc3)oc12`, for which the GI50 is 36.4 µM in the assay on NCI-H460 lung; 58.7 µM in the assay with NCI-H23 lung; 295 µM in the assay on UO-31 renal; 3.86 µM in the assay on HL-60(TB) leukemia; 112 µM in the assay on SNB-19 CNS; 82.5 µM in the assay on HCT-15 colon. In addition, the GI50 in the assay on OVCAR-3 ovarian is > 43.4 µM. In addition, the TGI was 62.5 µM and > 111 µM with NCI-H460 lung; 62.5 µM and > 147 µM in the assay with NCI-H23 lung; 62.5 µM in the assay on PC-3 prostate; 44.6 µM in the assay on HL-60(TB) leukemia; 62.5 µM and > 211 µM in the assay with SNB-19 CNS; 62.5 µM and > 216 µM with HCT-15 colon. In addition, the TGI in the assay on MDA-MB-435 was 62.5 µM; in the assay on TK-10 renal, 52.5 µM; in the assay with OVCAR-3 ovarian it was 62.5 µM and > 76.3 µM.
In the case of `O=C1CS[C@@](CC(c2ccc(Cl)cc2)c2ccc(Cl)cc2)(c2ccc(Cl)cc2)N1`, the concentration for total growth inhibition (TGI) in the assay on NCI-H460 lung is > 100 µM; with NCI-H23 lung, > 100 µM; in the assay on UO-31 renal, > 100 µM; with PC-3 prostate, 65.5 µM; with HL-60(TB) leukemia, 28.4 µM; in the assay with SNB-19 CNS it was > 100 µM. The TGI with HCT-15 colon was > 100 µM; with MDA-MB-435 it was > 100 µM; with TK-10 renal it was > 100 µM; with OVCAR-3 ovarian, 38 µM.
In the case of `N[C@H](CCC(=O)NCP(=O)(O)O)C(=O)O`, the TGI in the assay on NCI-H460 lung, with NCI-H23 lung, in the assay on UO-31 renal, in the assay with PC-3 prostate, in the assay on HL-60(TB) leukemia and in the assay on SNB-19 CNS was > 100 µM in each case. For the same compound, the TGI in the assay on HCT-15 colon was > 100 µM; in the assay on MDA-MB-435 it was > 100 µM; in the assay on TK-10 renal, 25.6 µM; with OVCAR-3 ovarian, > 100 µM.
Consider `Cc1c(O)c(OC2OC(CO)C(O)C(O)C2O)cc2c1C=C[C@@H]1[C@@]2(C)C(=O)C[C@]2(C)[C@@H]([C@@](C)(O)C(=O)CCC(C)(C)O)[C@H](O)C[C@@]12C` (some centres undefined), for which the TGI was 48 µM with NCI-H460 lung; 37.9 µM in the assay with NCI-H23 lung; 44.8 µM in the assay on UO-31 renal; 44.5 µM with PC-3 prostate; > 100 µM in the assay with HL-60(TB) leukemia; 54 µM with SNB-19 CNS. For the same compound, the TGI worked out at 66.3 µM with HCT-15 colon, 66.5 µM in the assay with MDA-MB-435, 33.4 µM with TK-10 renal and 46.9 µM in the assay with OVCAR-3 ovarian.
On to `CCOC(=O)c1[nH]c2cccc3c2c1CC[C@H](NC(=O)C(F)(F)F)C3=O`, for which the TGI was > 100 µM in the assay on NCI-H460 lung; > 100 µM in the assay with NCI-H23 lung; > 100 µM in the assay with UO-31 renal; > 100 µM with PC-3 prostate; > 100 µM in the assay on HL-60(TB) leukemia; 46.3 µM with SNB-19 CNS. In addition, the total growth inhibition concentration (TGI) with HCT-15 colon, in the assay on MDA-MB-435, in the assay with TK-10 renal and in the assay on OVCAR-3 ovarian was > 100 µM in each case.
On to `NC(=Nc1ccccc1)c1ccccc1N`, for which the TGI with NCI-H460 lung, with NCI-H23 lung, in the assay with UO-31 renal, in the assay with PC-3 prostate, with HL-60(TB) leukemia and in the assay with SNB-19 CNS was > 100 µM each time. The TGI with HCT-15 colon, in the assay with MDA-MB-435, with TK-10 renal and with OVCAR-3 ovarian was > 100 µM each time.
For the compound `Cc1cc2oc(C)c(S(=O)(=O)NC(=O)Nc3ccc(Cl)cc3)c(=O)c2c(=O)o1`, the TGI in the assay with NCI-H460 lung, in the assay with NCI-H23 lung, in the assay with UO-31 renal, with PC-3 prostate, in the assay with HL-60(TB) leukemia and in the assay on SNB-19 CNS was > 100 µM each time. Moreover, the TGI with HCT-15 colon, with MDA-MB-435, in the assay on TK-10 renal and with OVCAR-3 ovarian was > 100 µM throughout.
On to `C=Cc1nc(C#N)c(N)o1`, for which the TGI in the assay on NCI-H460 lung, in the assay on NCI-H23 lung, in the assay with UO-31 renal, in the assay on PC-3 prostate, in the assay with HL-60(TB) leukemia and in the assay with SNB-19 CNS was > 100 µM each time. In addition, the TGI in the assay with HCT-15 colon, in the assay on MDA-MB-435, in the assay on TK-10 renal and in the assay with OVCAR-3 ovarian was > 100 µM throughout.
With `CCCCCN(CCCCC)CC(C)(C)C(O)c1ccc(OC)c2ccccc12` (centres undefined), the TGI with NCI-H460 lung came out at 24.9 µM; with NCI-H23 lung it was 32.3 µM; in the assay with UO-31 renal, 8.93 µM; in the assay on PC-3 prostate, 26.4 µM; in the assay with HL-60(TB) leukemia, 20.7 µM; with SNB-19 CNS it was 28 µM. The TGI with HCT-15 colon stood at 21 µM; in the assay on MDA-MB-435 it was 29.8 µM; in the assay on TK-10 renal, 25.6 µM; in the assay with OVCAR-3 ovarian, 26 µM.
For `Cc1ccc(S(=O)(=O)N/N=C2/CCC(C(C)(C)C)CC2Br)cc1` (centres undefined), the TGI in the assay on NCI-H460 lung was > 100 µM; with NCI-H23 lung, > 100 µM; with UO-31 renal, 33.4 µM; with PC-3 prostate it was 86.5 µM; with HL-60(TB) leukemia it was > 100 µM; with SNB-19 CNS, > 100 µM. The total growth inhibition concentration (TGI) in the assay on HCT-15 colon is > 100 µM; in the assay on MDA-MB-435, 51.8 µM; with TK-10 renal, > 100 µM; in the assay with OVCAR-3 ovarian, 48.9 µM.
For `COc1c2ccsc2c(OC)c2ccsc12`, the concentration for total growth inhibition (TGI) with NCI-H460 lung, in the assay on NCI-H23 lung, in the assay with UO-31 renal, with PC-3 prostate, with HL-60(TB) leukemia and with SNB-19 CNS was > 100 µM in each case. Also, the TGI with HCT-15 colon, in the assay on MDA-MB-435, in the assay with TK-10 renal and with OVCAR-3 ovarian was > 100 µM throughout.
Turning to `CCOC(=O)C(=CN1CCNC1=S)C(=O)OCC`, the TGI in the assay with NCI-H460 lung, in the assay with NCI-H23 lung, with UO-31 renal, in the assay with PC-3 prostate, with HL-60(TB) leukemia and in the assay with SNB-19 CNS was > 100 µM each time. For the same compound, the TGI in the assay with HCT-15 colon is > 100 µM; in the assay with MDA-MB-435, > 100 µM; in the assay on TK-10 renal, > 100 µM; with OVCAR-3 ovarian, > 32.4 µM. Moreover, the GI50 in the assay with UO-31 renal, with SNB-19 CNS and in the assay with TK-10 renal was > 100 µM throughout.

For the origin of these results see PubChem BioAssay (NCI).
